Test results published in patent US20220306640A1, “HYDANTOIN DERIVATIVE” (ONO PHARMACEUTICAL CO., LTD., priority 2019, published 2022).

Assays:
[1] = target: T1, DDR1 phosphorylation in T-47D (ATCC, HTB-133) cells (Homo sapiens, UniProt Q08345); experiment: Measurement of DDR1 phosphorylation suppression rate by using T-47D cells (p-DDR1 ELISA); type: cell-based; conditions: collagen Type I 10 μg/ml, p-DDR1 (panTyr) ELISA
T1 construct: host or cells: T-47D
Procedure: Biological Example 2: Measurement of DDR1 Phosphorylation Suppression Rate by Using T-47D (ATCC, HTB-133) cells
T-47D cells should be in culture for at least 7 days before using in the assay.
Cell culture medium: RPMI 1640 (HyClone) containing 10% Heat-FBS (HyClone) was prepared.
Assay medium: RPMI 1640 containing 0.1% BSA (solarbio) was prepared.
Collagen Type I (rat tail) solution: Assay medium containing 200 μg/mL Collagen I, rat tail (Gibco) was prepared.
Cell lysis buffer: a solution containing IX cell lysis buffer (CST) and 1× protease and phosphatase inhibitor cocktail (Thermofisher) was prepared by using ddH2O.
• 1. Collect cells into tubes and centrifuge at 1200 rpm for 5 min, at room temperature. Re-suspend the cells in cell culture medium pre-warmed to room temperature. • 2. Count cells and suspend at a density of 2×10^5/ml of cell culture medium. Plate the cells at 100 μL per well (Corning 3599 96-well plate, 2×10^4 cells per well final), mixing the cells well between each draw of the pipettor. • 3. Put lid on cell plate and place into the incubator at 37° C., 5% CO2 • 4. Culture cell overnight
• 1. Remove the plate from the incubator • 2. Cell medium is replaced with the 90 μL Assay medium.
• 1. Compound plates are pre-titrated using DMSO (10-fold dilution for 6 points) • 2. Dilute test compound using assay medium; Transfer 1 μL compound to other 96 well plate and then add 49 μL assay medium to each well (50 fold dilution). • 3. Add 5 μL the diluted test compound solution to the appropriate wells by pipettor. Compound final concentration is start from […] and DMSO final concentration is 0.1 • 4. Tap the plates gently to mix in compound. Reseal the plate with a lid and place in the incubator again, for 24 h.
• 1. Diluted collagen Type I in assay medium to the 200 μg/ml concentration • 2. Using the pipettor adds 5 μL of 200 μg/mL collagen Type I solution to the cell plate (compound well and High control well, collagen final conc. is 10 μg/ml). Add assay medium buffer to the control wells (low control well) • 3. Reseal the plate with a lid and place in the incubator. Incubate 24 h for collagen type I
• 1. After incubation, add 100 µL per well Cell lysis buffer. • 2. Incubate 30 min on ice, then freezing to −80° C. to get the fully cell lysates. • 3. Transfer cell lysates to new plate • 4. Centrifuge for 30 min (×4000 rpm) at 4° C. Then transfer the supernatant to a new plate.
p-DDR1 (panTyr) ELISA kit (CST) was used in the study. The measurement was carried out according to the attached instruction.
(§1) The inhibition rate (%) in the test compound group was calculated based on the following mathematical formula.
% inhibition=100−100*(assay value of test compound−A)/(B−A) [Math. 2]
A: average value of low control group B: average value of high control group Values of 50% inhibition rate (IC50 values) of the test compound were calculated from the inhibition curve based on the inhibition rate of the test compounds in each concentration.

DDR1 = target: T2, DDR1 (Homo sapiens, UniProt Q08345); experiment: Measurement of DDR1 inhibitory activity (LanthaScreen system, in vitro test); type: binding; conditions: GST-DDR1, Kinase tracer 178
T2 construct: purchased Invitrogen
T2 sequence (Q08345 19-913): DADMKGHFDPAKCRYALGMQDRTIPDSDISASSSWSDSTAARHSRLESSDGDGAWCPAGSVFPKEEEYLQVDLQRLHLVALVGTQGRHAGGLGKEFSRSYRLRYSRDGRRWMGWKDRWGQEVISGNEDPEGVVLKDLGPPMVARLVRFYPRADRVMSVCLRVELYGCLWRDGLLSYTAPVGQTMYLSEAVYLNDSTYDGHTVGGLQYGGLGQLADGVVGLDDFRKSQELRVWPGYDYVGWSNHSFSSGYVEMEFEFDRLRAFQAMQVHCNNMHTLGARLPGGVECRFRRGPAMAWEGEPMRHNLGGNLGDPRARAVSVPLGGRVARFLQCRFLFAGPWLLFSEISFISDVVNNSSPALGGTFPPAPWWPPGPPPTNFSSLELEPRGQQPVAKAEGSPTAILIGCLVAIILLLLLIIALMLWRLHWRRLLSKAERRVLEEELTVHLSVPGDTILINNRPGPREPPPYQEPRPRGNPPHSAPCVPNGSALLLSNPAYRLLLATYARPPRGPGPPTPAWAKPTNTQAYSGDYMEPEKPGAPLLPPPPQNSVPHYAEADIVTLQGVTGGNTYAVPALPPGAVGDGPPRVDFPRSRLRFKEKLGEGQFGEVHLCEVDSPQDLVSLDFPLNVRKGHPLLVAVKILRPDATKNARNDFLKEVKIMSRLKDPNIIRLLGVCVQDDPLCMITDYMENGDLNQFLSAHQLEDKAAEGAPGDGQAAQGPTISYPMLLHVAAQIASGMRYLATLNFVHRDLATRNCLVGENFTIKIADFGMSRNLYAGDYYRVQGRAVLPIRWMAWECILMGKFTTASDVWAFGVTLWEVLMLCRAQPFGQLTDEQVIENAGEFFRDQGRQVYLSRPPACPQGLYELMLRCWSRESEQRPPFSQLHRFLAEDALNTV
Procedure: Biological Experiment Example 1: Measurement of an DDR1 Inhibitory Activity (In Vitro Test)
An DDR1 enzyme inhibitory activity was measured by using LanthaScreen (registered trademark) system (Invitrogen) based on the attached instruction. The reagents used are shown below.
Assay buffer: 5× Kinase buffer A (Invitrogen) was diluted 5-fold with ddH2O.
1× Kinase Buffer A: 50 mmol/L HEPES pH 7.5, 10 mmol/L MgCl2, 1 mmol/L EGTA, 0.01% Brij-35.
2×DDR1 Solution: a solution containing […] GST-DDR1 (Invitrogen) was prepared by using Assay buffer.
2× Tracer/antibody solution: a solution containing 20 nmol/L Kinase tracer 178 (Invitorgen) and […] Eu-Anti-GST Antibody (Invitorogen) was prepared by using Assay buffer. Test compound solution: a solution containing a test compound of 2-fold concentration with respect to the final concentration was prepared by 50-fold diluting a DMSO solution of test compound of each concentration with the Assay buffer.
• 1 Add 5 μL 2×DDR1 Solution to proxiplate (PerkinElmer) • 2 Add 5 μL test compound solution to proxiplate • 3 Incubate for 15 min at RT • 4 Add 5 μL 2× Tracer/Antibody solution to all well Incubate 1 h at RT • 6 Read LANCE Eu on Envision (PerkinElmer) (Ex: 320 nm/Em 665 nm & 615 nm)
In the low control group, 5 μL Assay buffer was added instead of 5 μL 2×DDR1 Solution and the final 1% DMSO solution was added instead of test compound solution.
In the high control group, the final 1% DMSO solution was added instead of test compound solution.
as §1
% inhibition=100−100*(assay value of test compound−A)/(B−A) [Math. 1]
A: average value of low control group B: average value of high control group
Values of 50% inhibition rate (IC50 values) of the test compound were calculated from the inhibition curve based on the inhibition rate of the test compounds in each concentration.

T1 sequence (Q08345 19-913): as above

SMILES	IC50 [1] [nM]	IC50 (DDR1) [nM]
Cn1cc(-c2cc(O[C@H]3C[C@H](N4C(=O)CN(c5cc(CN6CCNCC6)cc(C(F)(F)F)c5)C4=O)C3)ccn2)cn1 [Example 2(126), 3-(trans-3-{[2-(1-methyl-1H-pyrazol-4-yl)-4-pyridinyl]oxy}cyclobutyl)-1-[3-(1-piperazinylmethyl)-5-(trifluoromethyl)phenyl]-2,4-imidazolidinedione]	6	10
O=C1CN(c2cncc(C(F)(F)F)c2)C(=O)N1C1CC2CC1CC2Oc1ncnc2[nH]ccc12 (centres unmarked) [Example 3(63), 3-[5-(7H-pyrrolo[2,3-d]pyrimidin-4-yloxy)bicyclo[2.2.1]hept-2-yl]-1-[5-(trifluoromethyl)-3-pyridinyl]-2,4-imidazolidinedione]	1	7
O=C1CN(c2cncc(C(F)(F)F)c2)C(=O)N1C1CC2(CC(Oc3ncnc4[nH]ccc34)C2)C1 (centres unmarked) [Example 3(66), 3-[6-(7H-pyrrolo[2,3-d]pyrimidin-4-yloxy)spiro[3.3]hept-2-yl]-1-[5-(trifluoromethyl)-3-pyridinyl]-2,4-imidazolidinedione]	1	1
CC(C)c1cc(N2C(=O)CN(c3ccc(CN4CCN(C)CC4)c(C(F)(F)F)c3)C2=O)ccc1Oc1ccnc(N)n1 [Example 3(78), 3-{4-[(2-amino-4-pyrimidinyl)oxy]-3-isopropylphenyl}-1-{4-[(4-methyl-1-piperazinyl)methyl]-3-(trifluoromethyl)phenyl}-2,4-imidazolidinedione]	2	4
CCc1cc(N2C(=O)CN(c3cc(C(C)(C)C(F)(F)F)on3)C2=O)ccc1Oc1ccnc(N)n1 [Example 3(101), 3-{4-[(2-amino-4-pyrimidinyl)oxy]-3-ethylphenyl}-1-[5-(1,1,1-trifluoro-2-methyl-2-propanyl)-1,2-oxazol-3-yl]-2,4-imidazolidinedione]	2	3
Cc1cc(Oc2ccnc(N)n2)ccc1N1C(=O)CN(c2cc(F)cc(C(F)(F)F)c2)C1=O [Example 3(111), 3-{4-[(2-amino-4-pyrimidinyl)oxy]-2-methylphenyl}-1-[3-fluoro-5-(trifluoromethyl)phenyl]-2,4-imidazolidinedione]	1	1
CCc1cc(N2CCN(c3cccc(C(F)(F)F)c3)C2=O)ccc1Oc1ccnc(N)n1 [Example 4(1), 1-{4-[(2-amino-4-pyrimidinyl)oxy]-3-ethylphenyl}-3-[3-(trifluoromethyl)phenyl]-2-imidazolidinone]	1	3
COc1cc2nccc(Cc3ccc(N4C(=O)CN(c5cccc(C(F)(F)F)c5)C4=O)cc3)c2cc1OC [Example 6(1), 3-{4-[(6,7-dimethoxy-4-quinolinyl)methyl]phenyl}-1-[3-(trifluoromethyl)phenyl]-2,4-imidazolidinedione]	2	5

The remaining lines, values ahead:

IC50 [1] [nM]	IC50 (DDR1) [nM]	SMILES
3	3	CC(C)c1cc(N2C(=O)CN(c3cncc(C(F)(F)F)c3)C2=O)ccc1Oc1ccnc2[nH]c(=O)[nH]c12 [Example 2(149), 3-{3-isopropyl-4-[(2-oxo-2,3-dihydro-1H-imidazo[4,5-b]pyridin-7-yl)oxy]phenyl}-1-[5-(trifluoromethyl)-3-pyridinyl]-2,4-imidazolidinedione]
1	1	Cc1cc(N2C(=O)CN(c3cncc(C(F)(F)F)c3)C2=O)ccc1Oc1ccnc2ccnn12 [Example 3(47), 3-[3-methyl-4-(pyrazolo[1,5-a]pyrimidin-7-yloxy)phenyl]-1-[5-(trifluoromethyl)-3-pyridinyl]-2,4-imidazolidinedione]
5	7	CC#Cc1cc(Oc2ccnc(N)n2)ccc1N1C(=O)CN(c2cncc(C(F)(F)F)c2)C1=O [Example 3(120), 3-{4-[(2-amino-4-pyrimidinyl)oxy]-2-(1-propyn-1-yl)phenyl}-1-[5-(trifluoromethyl)-3-pyridinyl]-2,4-imidazolidinedione]
7	5	Nc1nccc(Oc2ccc(N3C(=O)CN(c4cncc(C(F)(F)F)c4)C3=O)c(-c3ccccc3)c2)n1 [Example 3(122), 3-{5-[(2-amino-4-pyrimidinyl)oxy]-2-biphenylyl}-1-[5-(trifluoromethyl)-3-pyridinyl]-2,4-imidazolidinedione]
0.1	2	CCc1cc(N2C(=O)CN(c3cncc(C(F)(F)F)c3)C2=O)ccc1Oc1ccnc2[nH]ccc12 [Example 3(176), 3-[3-ethyl-4-(1H-pyrrolo[2,3-b]pyridin-4-yloxy)phenyl]-1-[5-(trifluoromethyl)-3-pyridinyl]-2,4-imidazolidinedione]
2	3	C=Cc1cc(N2C(=O)CN(c3cncc(C(F)(F)F)c3)C2=O)ccc1Nc1ncnc2cc(OC)cc(F)c12 [Example 7(6), 3-{4-[(5-fluoro-7-methoxy-4-quinazolinyl)amino]-3-vinylphenyl}-1-[5-(trifluoromethyl)-3-pyridinyl]-2,4-imidazolidinedione]
20	10	COc1cc2nccc(N3CCc4cc(N5C(=O)CN(c6cncc(C(F)(F)F)c6)C5=O)ccc43)c2cc1OC [Example 9(1), 3-[1-(6,7-dimethoxy-4-quinolinyl)-2,3-dihydro-1H-indol-5-yl]-1-[5-(trifluoromethyl)-3-pyridinyl]-2,4-imidazolidinedione]
3	3	O=C1CN(c2cncc(C3(C(F)(F)F)CCO3)c2)C(=O)N1c1ccc(Oc2cnc3[nH]ncc3c2)cc1 (centres unmarked) [Example 13, 3-[4-(1H-pyrazolo[3,4-b]pyridin-5-yloxy)phenyl]-1-{5-[2-(trifluoromethyl)-2-oxetanyl]-3-pyridinyl}-2,4-imidazolidinedione]
